Structures are written as SMILES. Structures can show the parent of a compound that is named as a salt.

As a reminder, the melting point is the temperature, or range, at which the solid turns liquid. The molecule `OC(C1CCCCC1)C(CCN1CC=C(c2cccc3sccc23)CC1)c1ccccn1` (stereo not shown) (as salt: oxalate) registered a melting point of 80 to 85 °C.

The values are drawn from patent US6664274B1, “Piperidine derivatives as serotonine reuptake inhibitors” (Eli Lilly and Company, priority 1999, dated 2003).
